Laboratory results from patent US12011474B2, “Composition comprising a mixture of molecules extracted from Chrysanthellum indicum, Cynara scolymus and Lycium barbarum and use to act on carbohydrate and/or fat metabolism” (VALBIOTIS, priority 2015, dated 2024).

Tested on: db/db mice
Test: Fasting blood glucose in db/db mice
Assay type: in vivo
Conditions: same db/db model, separate experiment with younger mice, control group 414 mg/dL
From the text: The experiments were done on db/db mice.
The experimental time was 9 weeks with a “Run-in” of 1 week followed by 8 weeks of supplementation with the plant extracts and a composition X. The male mice were 10 weeks old at the beginning of treatment.
The experimental assessments in particular pertained to: • The measurement of the serous lipids (total cholesterol, LDL cholesterol, triglycerides); • The evolution of the blood glucose during an oral sensitivity test to insulin. This test consisted of an intraperitoneal injection of insulin (2 U/kg) on an empty stomach. The evolution of the blood glucose in response to the insulin injection was measured in the tail by biopsy just before the injection (t0), then after 30, 60, 90 and 120 minutes. The area under the curve (AUC) was calculated. A decrease in the AUC reflects a better response to the insulin injection, and therefore improved insulin sensitivity. Conversely, an increase in the AUC reflects a lower quality sensitivity to the insulin, and therefore insulin resistance; • The measurement of the fasting blood glucose.
The evaluations presented were done just before the supplementation (t=0) and at the end of supplementation (t=8 weeks).

CN(C)C(=N)N=C(N)N [metformin]
Fasting blood glucose: 463 mg/d L | Increase of fasting blood glucose versus control group: 11%
